Measured values reported in BindingDB's records for doi:10.1016/j.bmc.2009.01.019 (Takeda Pharmaceutical, 2009).

Molecular target: Glycogen synthase kinase-3 beta (Homo sapiens, UniProt P49841)
Experiment: GSK-3beta Kinase Inhibition Assay
Conditions: pH 7.5; 37 °C
Procedure: Human GSK-3beta was expressed as the N-terminal FLAG-tagged protein using a baculovirus expression system. The kinase assay was conducted in a 96-well plate assay format. The kinase reactions were initiated by addition of ATP-solution (final 500 nM), and were incubated for 90 min at 37 deg C for GSK-3 beta. The reactions were terminated by the addition of Kinase-Glo reagent containing EDTA. […] The reaction window was calculated from the difference of the average signals obtained from the control (5% DMSO) and the background wells. […] The best-fit lines were obtained by analyzing the logistic fitting equation.

Sequence of Glycogen synthase kinase-3 beta (P49841 whole entry): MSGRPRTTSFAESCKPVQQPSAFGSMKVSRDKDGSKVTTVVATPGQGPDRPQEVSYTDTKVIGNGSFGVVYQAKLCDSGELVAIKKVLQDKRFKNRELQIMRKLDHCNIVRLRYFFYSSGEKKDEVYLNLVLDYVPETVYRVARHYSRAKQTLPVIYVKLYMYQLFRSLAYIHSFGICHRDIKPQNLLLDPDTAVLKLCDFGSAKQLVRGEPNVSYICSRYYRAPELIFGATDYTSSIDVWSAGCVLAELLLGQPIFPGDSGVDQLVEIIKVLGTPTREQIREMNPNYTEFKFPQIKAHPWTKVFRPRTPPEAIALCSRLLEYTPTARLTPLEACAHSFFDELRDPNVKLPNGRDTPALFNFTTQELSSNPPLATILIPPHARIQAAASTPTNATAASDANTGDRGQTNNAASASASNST

IC50: 6.5 nM
SMILES: COc1ccc(CSc2nnc(-c3ccc4nccn4c3)o2)cc1C(F)(F)F [oxadiazole derivative, 20q]
